Consider 60 compounds from patent US9266891B2, “Substituted [1,2,4]triazolo[4,3-A]pyrazines that are BRD4 inhibitors” (Boehringer Ingelheim International GmbH, priority 2012, dated 2016).

In this assay the target is BRD4-BD1 (Homo sapiens (Human), UniProt O60885). The assay can be described thus: BRD4-H4 tetraacetylated peptide inhibition AlphaScreen. The class given is binding. The settings on record: GST-BRD4-BD1 (aa 44-168) with biotinylated Acetyl-Histone H4 (Lys5, 8, 12, 16) peptide. Here is the method: Biological Methods BRD4-H4 Tetraacetylated Peptide Inhibition AlphaScreen
Compounds are diluted in serial dilution 1:5 in assay buffer from 10 mM stock in DMSO (100 μM start concentration) in white OptiPlate-384 (PerkinElmer). A mix consisting of 15 nM GST-BRD4-BD1 protein (aa 44-168) or 150 nM GST-BRD4-BD2 (aa 333-460) and 15 nM biotinylated Acetyl-Histone H4 (Lys5, 8, 12, 16) peptide is prepared in assay buffer (50 mM HEPES pH=7.4; 25 mM NaCl; 0.05% Tween 20; 0.1% bovine serum albumin (BSA); 10 mM dithiothreitol (DTT)). 6 μl of the mix is added to the compound dilutions. Subsequently, 6 μl of premixed AlphaLISA Glutathione Acceptor Beads and AlphaScreen Streptavidin Donor Beads from PerkinElmer (in assay buffer at a concentration of 10 μg/ml each) are added and the samples are incubated for 30 min at RT in the dark (shaking 300 rpm). Afterwards, the signal is measured in a PerkinElmer Envision HTS Multilabel Reader using the AlphaScreen protocol from PerkinElmer. Each plate contains negative controls where biotinylated Acetyl-Histone H4 peptide and GST-BRD4-BD1 or GST-BRD4-BD2 are left out and replaced by assay buffer. Negative control values are entered as low basis value when using the software GraphPad Prism for calculations. Furthermore, a positive control (probe molecule JQ1+ with protein/peptide mix) is pipetted. Determination of IC50 values are carried out using GraphPad Prism 3.03 software (or updates thereof).
`CNc1nc(-c2nc3cnc(N4CCN(C)CC4)cc3n2Cc2ccncc2)cn2c(C)nnc12` [III-53] displayed a concentration for half-maximal inhibition (IC50) of 12 nM.
To `Cc1nnc2c(NC(C)C)nc(-c3nc4cnc(C(C)C)cc4n3[C@@H](C)c3ccccn3)cn12` [III-42] belongs 66 nM; to `COCCN1CCC(Nc2nc(-c3nc4ccccc4n3Cc3ccc(F)cc3)cn3c(C)nnc23)CC1` [III-5], 9 nM.
`CNc1nc(-c2nc3cnc(N4CCN(C)CC4)cc3n2Cc2ccccn2)cn2c(C)nnc12` [III-20] had an IC50 of 13 nM.
Under `CNc1nc(-c2nc(C)c(C)n2Cc2ccccc2)cn2c(C)nnc12` [II-2] stands 15 nM; under `CNc1nc(-c2nc3cnc(N4CCN(C)CC4)nc3n2Cc2ccccc2)cn2c(C)nnc12` [III-11], 9 nM; under `Cc1nnc2c(NC(C)C)nc(-c3nc4ccc(C5CCOCC5)cc4n3Cc3ccccn3)cn12` [III-44], 32 nM.
To `COCCN1CCC(Nc2nc(-c3nc4ccccc4n3Cc3ccc(F)c(F)c3)cn3c(C)nnc23)CC1` [III-6] belongs 9 nM.
As for `CNc1nc(-c2cn(C)nc2Cc2ccccc2)cn2c(C)nnc12` [Example I-1, 6-(3-benzyl-1-methyl-1H-pyrazol-4-yl)-N,3-dimethyl-[1,2,4]triazolo[4,3-a]pyrazin-8-amine], half-maximal inhibition (IC50) was put at 61 nM.
Under `Cc1nnc2c(NC(C)C)nc(-c3nc4ccc(N(C)C)cc4n3Cc3ccccn3)cn12` [III-32] stands 7 nM; under `COc1cc2c(cn1)nc(-c1cn3c(C)nnc3c(NC(C)C)n1)n2Cc1ccccn1` [III-39], 126 nM.
In the case of `CNc1nc(-c2nc3ccc(N4CCN(C)CC4)cc3n2Cc2cccnc2)cn2c(C)nnc12` [III-48], the IC50 was 8 nM.
Under `CNc1nc(-c2nc3cc(C4CCOCC4)ccc3n2Cc2ccccn2)cn2c(C)nnc12` [III-25] stands 11 nM; under `COCCN1CCC(Nc2nc(-c3nc4ccccc4n3[C@@H](C)c3ccccc3)cn3c(C)nnc23)CC1` [III-2], 41 nM; under `CNc1nc(-c2nn(C)c(C)c2Cc2ccccc2)cn2c(C)nnc12` [Example I-4], 18 nM.
To `Cc1nc(-c2cnn(C)c2Oc2ccccc2)cn2c(C)nnc12` [Example I-3] belongs 41 nM; to `Cc1nnc2c(NC(C)C)nc(-c3nc4cnc(N5CCOCC5)cc4n3Cc3ccc(F)cn3)cn12` [III-28], 1 nM.
To `Cc1nc(-c2nc3cnc(N4CCN(C)CC4)cc3n2Cc2ccccc2)cn2c(C)nnc12` [III-9] belongs 14 nM.
Compound `COCCN1CCC(Nc2nc(-c3nc4ccc(N5CCOCC5)cc4n3Cc3ccccc3)cn3c(C)nnc23)CC1` [III-12] yielded an IC50 of 7 nM.
In the case of `CNc1nc(-c2nc(-c3ccccc3)c(C)n2Cc2ccccc2)cn2c(C)nnc12` [II-1, 6-(1-benzyl-5-methyl-4-phenyl-1H-imidazol-2-yl)-N,3-dimethyl-[1,2,4]triazolo[4,3-a]pyrazin-8-amine], the midpoint of inhibition, the IC50, lay at 4 nM.
Under `Cc1nnc2c(NC(C)C)nc(-c3nc4ccccc4n3Cc3ccccn3)cn12` [III-33] stands 20 nM; under `Cc1ccc2nc(-c3cn4c(C)nnc4c(NC(C)C)n3)n(Cc3ccccn3)c2c1` [III-35], 15 nM.
For the compound `Cc1nnc2c(N[C@@H]3CCOC3)nc(-c3nc4cnc(N5CCOCC5)cc4n3Cc3cccnc3)cn12` [III-51], the IC50 is 13 nM.
Under `Cc1nnc2c(NC(C)C)nc(-c3nc4cnc(N5CCOC[C@@H]5C)cc4n3Cc3ccccn3)cn12` [III-30] stands 9 nM.
To `Cc1cc2c(cn1)nc(-c1cn3c(C)nnc3c(N[C@@H]3CCOC3)n1)n2Cc1cccnc1` [III-52] belongs 31 nM; to `Cc1nnc2c(NC(C)C)nc(-c3nc4cnc(C(C)C)cc4n3Cc3ccccn3)cn12` [III-40], 18 nM; to `CNc1nc(-c2nc3cnc(N4CCN(C)CC4)cc3n2Cc2cccnc2)cn2c(C)nnc12` [III-47], 12 nM.
To `CNc1nc(-c2nc3ccc(N4CCOCC4)cc3n2Cc2ccccc2)cn2c(C)nnc12` [III-14] belongs 10 nM.
`Cc1nnc2c(NC(C)C)nc(-c3nc4ccc(C(C)C)cc4n3[C@@H](C)c3ccccn3)cn12` [III-46] gave an IC50 of 243 nM.
To `CNc1nc(-c2nc3cnc(N4CCOCC4)cc3n2Cc2cccnc2)cn2c(C)nnc12` [III-49] belongs 4 nM.
Under `CNc1nc(-c2nc3ccccc3n2Cc2ccccc2)cn2c(C)nnc12` [III-7] stands 22 nM; under `CNc1nc(-c2nc3ccc(N4CCOCC4)cc3n2Cc2cccnc2)cn2c(C)nnc12` [III-50], 5 nM.
To `Cc1nnc2c(NC(C)C)nc(-c3nc4cnc(N5CCOC[C@H]5C)cc4n3Cc3ccccn3)cn12` [III-29] belongs 9 nM.
For `Cc1nnc2c(NC(C)C)nc(-c3nc4cnc(N5CCOCC5)cc4n3Cc3ccccn3)cn12` [III-27], the midpoint of inhibition, the IC50, lay at 10 nM.
Under `Cc1nnc2c(NC(C)C)nc(-c3nc4cnc(N(C)C)cc4n3Cc3ccccn3)cn12` [III-31] stands 13 nM.
Under `CNc1nc(-c2nc3cnc(N4CCOCC4)cc3n2Cc2ccccn2)cn2c(C)nnc12` [III-22] stands 3 nM; under `Cc1cccc(Cn2c(-c3cn4c(C)nnc4c(NC(C)C)n3)nc3cnc(N4CCOCC4)cc32)n1` [III-38], 17 nM; under `CNc1nc(-c2cnn(C)c2Oc2ccccc2)cn2c(C)nnc12` [Example I-2], 41 nM.
With `Cc1nnc2c(NC(C)C)nc(-c3nc4cnc(N5CCN(C)CC5)cc4n3Cc3ccccc3)cn12` [III-18], the IC50 amounted to 26 nM.
Regarding `Cc1nnc2c(NC(C)C)nc(-c3nc4cnc(C5CCOCC5)cc4n3Cc3ccccn3)cn12` [III-43], half-maximal inhibition (IC50) required 34 nM.
Under `COCCN1CCC(Nc2nc(-c3nc4ccccc4n3[C@H](C)c3ccccc3)cn3c(C)nnc23)CC1` [III-3] stands 49 nM; under `COCCN1CCC(Nc2nc(-c3nc4cc(C5=NNC(=O)CC5C)ccc4n3Cc3ccccc3)cn3c(C)nnc23)CC1` (stereo not drawn) [III-15], 3 nM; under `Cc1nnc2c(NC(C)C)nc(-c3nc4cnccc4n3Cc3ccccn3)cn12` [III-37], 14 nM.
Under `Cc1nnc2c(NC(C)C)nc(-c3nc4cnc(N5CCOC[C@@H]5C)cc4n3[C@@H](C)c3ccccn3)cn12` [III-41] stands 74 nM.
To `CCNc1nc(-c2nc3cnc(N4CCN(C)CC4)cc3n2Cc2ccccc2)cn2c(C)nnc12` [III-17] belongs 17 nM; to `CNc1nc(-c2nc3ccc(N4CCN(C)CC4)cc3n2Cc2ccccn2)cn2c(C)nnc12` [III-21], 8 nM; to `Cc1nnc2c(NC(C)C)nc(-c3nc4cnc(N5CCOC[C@@H]5C)cc4n3[C@@H](C)c3ccccc3)cn12` [III-19], 38 nM.
`CNc1nc(-c2nc3cc(C4=NNC(=O)CC4C)ccc3n2Cc2ccccc2)cn2c(C)nnc12` (stereo not drawn) [III-16] registered an IC50 of 5 nM.
To `Cc1nnc2c(NC(C)C)nc(-c3nc4ccc(C5CCOCC5)cc4n3[C@@H](C)c3ccccn3)cn12` [III-45] belongs 69 nM.
Under `Cc1cc2c(cn1)nc(-c1cn3c(C)nnc3c(NC(C)C)n1)n2Cc1ccccn1` [III-36] stands 28 nM; under `CNc1nc(-c2nc3ccc(N4CCN(C)CC4)cc3n2Cc2ccccc2)cn2c(C)nnc12` [III-13], 9 nM; under `Cc1nnc2c(N[C@@H]3CCOC3)nc(-c3nc4cnc(N5CCOCC5)cc4n3Cc3ccccn3)cn12` [III-24], 20 nM.
To `CNc1nc(-c2nc3cccnc3n2Cc2ccccc2)cn2c(C)nnc12` [III-10] belongs 18 nM; to `Cc1nnc2c(NC(C)C)nc(-c3nc4ccc(N5CCOCC5)cc4n3Cc3ccccn3)cn12` [III-26], 5 nM.
`CNc1nc(-c2nc3cnc(N4CCN(C)CC4)cc3n2Cc2ccccc2)cn2c(C)nnc12` [III-8] showed an IC50 of 9 nM.
In turn, `Cc1nnc2c(NC3CCN(C)CC3)nc(-c3nc4ccccc4n3Cc3ccccc3)cn12` [III-1, N-[6-(1-benzyl-1H-1,3-benzodiazol-2-yl)-3-methyl-[1,2,4]triazolo[4,3-a]pyrazin-8-yl]-1-methylpiperidin-4-amine] yielded a half-maximal inhibitory concentration (IC50) of 7 nM.
Under `CNc1nc(-c2nc3ccc(N4CCOCC4)cc3n2Cc2ccccn2)cn2c(C)nnc12` [III-23] stands 3 nM; under `COCCN1CCC(Nc2nc(-c3nc4ccccc4n3Cc3ccccc3)cn3c(C)nnc23)CC1` [III-4], 8 nM.
Under `COc1ccc2nc(-c3cn4c(C)nnc4c(NC(C)C)n3)n(Cc3ccccn3)c2c1` [III-34] stands 45 nM.
Compound `Cc1nc(-c2cn3c(C)nnc3c(C)n2)n(Cc2ccccc2)c1C` [II-3] had an IC50 of 31 nM.
